Data published in US20170196797A1 (AMOREPACIFIC CORPORATION, priority 2014, published 2017).

Assays:
collagenase = test: Collagenase expression suppression in human fibroblasts; type: cell-based; settings: 10^−4 M, 24 hours, untreated group = 100
Procedure: Tocopherol and EGCG are known to prevent skin aging by regenerating epidermal cells.
Human fibroblasts were added to a 96-well microtiter plate containing Dulbecco's modified Eagle's medium (DMEM) supplemented with 2.5 wt % fetal bovine serum, with 5,000 cells/well, and cultured to about 90% confluence.
The production of collagenase in the cell culture was measured using a collagenase measuring system (Amersham Pharmacia, USA). First, the harvested cell culture was added to a 96-well plate having primary collagenase antibodies applied uniformly thereto and was incubated for 3 hours in a constant-temperature bath. 3 hours later, after adding chromophore-conjugated secondary collagen antibodies to the 96-well plate, incubation was performed for 15 minutes. 15 minutes later, a substance inducing color development was added and color development was induced at room temperature for 15 minutes. […] The intensity of the yellow color varied depending on the degree of progress of the reaction.
A cell culture obtained without treating with the composition was used as a control group. That is to say, the expression level of collagenase in the group treated with the test substance was calculated relative to that of the untreated group as 100.
Collagenase expression level(%)=Absorbance of group treated with test substance/Absorbance of control group×100 [Equation 1]

MCP-1 = MCP-1 ELISA in retinoic acid-treated normal human skin keratinocytes; type: cell-based; settings: NHEKs, 24 hours
Procedure: One day before the testing, normal human skin keratinocytes (NHEKs, Lonza) were added to a 96-well plate with 5×10^4 cells/well and cultured in a 5% CO2 incubator at 37° C. for 24 hours. 24 hours later, the cells were washed with PBS twice and the cell culture medium was replaced with a serum-free keratinocyte basement medium (KBM). […] The retinoic acid is known to promote the secretion of the inflammatory cytokine MCP (monocyte chemoattractant protein-1) as a skin irritant. […] For the ELISA, the method provided by BD Science was used.

Mel-Ab cells = test: Melanin production inhibition in Mel-Ab cells (Dooley's method); type: cell-based, mouse; settings: 10 ppm, added for 3 consecutive days
Procedure: Melanocytes derived from C57BL/6 mouse (Mel-Ab cells) (Dooley, T. P. et al, Skin Pharmacol, 7, pp. 188-200) were cultured in DMEM supplemented with 10% fetal bovine serum, 100 nM 12-O-tetradecanoylphorbol-13-acetate and 1 nM cholera toxin under the condition of 37° C. and 5% CO2. The cultured Mel-Ab cells were detached with 0.25% trypsin-EDTA and cultured in a 24-well plate with a concentration of 10^5 cells/well. During the culturing, each test substance was added for 3 consecutive days starting from day 2. […] After removing the medium, the cells were washed with phosphate-buffered saline (PBS) and lysed with 1 N sodium hydroxide. After measuring absorbance at 400 nm, the melanin production inhibition was calculated according to Equation 2.
Melanin production inhibition(%)=100−(Absorbance of group treated with test substance/Absorbance of control group×100) [Equation 2]

[1] = Skin irritation test by sensitive panels; type: in vivo, human; settings: scale 0-3.0
Source text: 0.5-1.0: Slight irritation.
1.1-2.0: Moderate irritation.
2.1-3.0: Severe irritation.

[2] = DPPH method, antioxidative effect; type: biochemical; settings: sample concentration at which DPPH absorbance (540 nm) decreased by 50%; 37° C., 30 minutes
Procedure: The DPPH method evaluates antioxidative effect by measuring and comparing the effect of suppressing DPPH oxidation based on the change in absorbance caused by the reduction of DPPH. […] After incubation at 37° C. for 30 minutes, absorbance was measured at 540 nm. The analysis result is shown in Table 3, where IC50 means the sample concentration when the absorbance was decreased by 50% due to the added sample.

[3] = 0.5 mL on cheek, 15 sensitive panels

O=C(O[C@@H]1Cc2c(O)cc(O)cc2O[C@@H]1c1cc(O)c(O)c(O)c1)c1cc(O)c(O)c(O)c1 [EGCG]
Collagenase expression level (collagenase): 59%

C[C@]12CCC(=O)C=C1CC[C@@H]1[C@@H]2[C@@H](O)C[C@@]2(C)[C@H]1CC[C@]2(O)C(=O)CO [Hydrocortisone, hydrocortisone]
MCP-1 secretion (MCP-1; 100 nM + retinoic acid 10 μM): 448.3 pg/mL

Oc1ccc(O)cc1 [Hydroquinone, hydroquinone]
Melanin production inhibition (Mel-Ab cells): 57.5%

O=c1cc(CO)occ1O [Kojic acid, kojic acid]
Flushing score [1, 3]: 0.43 points
Pricking score [1, 3]: 0.81 points
Mean irritation score ([1]; mean of pricking and flushing): 0.62 points

CC1=C(/C=C/C(C)=C/C=C/C(C)=C/C(=O)O)C(C)(C)CCC1 [Retinoic acid, retinoic acid]
MCP-1 secretion (MCP-1; retinoic acid 10 μM alone, untreated group 527.3): 804.5 pg/mL

Cc1c(C)c2c(c(C)c1O)CCC(C)(C(=O)O)O2 (stereo not drawn) [Trolox]
IC50 [2]: 57 ppm

tocopherol
Collagenase expression level (collagenase): 81%
